According to US20230265069A1, “Small Molecule Inhibitors That Block the Budding of Enveloped Viruses” (priority 2020, published 2023):
Entries after “also recorded” stand apart in the source; their conditions may differ. Where two headings read alike, the source gives them in different places.

Columns and labels:
[1] = biological target: T1, Tsg101-UEV (Tsg101 amino acids 1-145) (Homo sapiens, UniProt Q99816); experiment: Fluorescence thermal shift (FTS) assay, binding to Tsg101-UEV; settings: for Thermal shift (Tm shift) of Tsg101-UEV caused by compound: FTS dose response, result in words; for Tm shift of Tsg101 in the FTS assay on addition of DTT: with reducing agent DTT
T1 sequence (Q99816 1-145): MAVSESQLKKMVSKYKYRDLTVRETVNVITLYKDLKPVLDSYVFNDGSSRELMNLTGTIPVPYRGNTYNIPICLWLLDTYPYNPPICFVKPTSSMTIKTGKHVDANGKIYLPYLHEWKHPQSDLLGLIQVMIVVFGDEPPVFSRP
Description: The fluorescence-based thermal shift assay is based on the observation that a protein unfolds upon heating, exposing the hydrophobic residues within its tertiary structure. The unfolding temperature (Tm) is determined by the protein's primary sequence and solution environment. The FTS assay uses a fluorescent dye sensitive to a hydrophobic environment to probe protein stability and its modulation by small molecule ligands. The dye has a low fluorescence quantum yield when in a polar environment. Once in contact with the hydrophobic core normally buried within a folded protein that has become exposed during the thermal unfolding (melting) process, the quantum yield of the dye increases, thus providing a reporting signal. Furthermore, a protein's stability can be affected by ligand binding, resulting in an increase or decrease in its melting temperature. FTS assay uses the Tm shift upon binding of a ligand to identify hit compounds for drug discovery.
We screened chemical compounds using a fluorescence thermal shift (FTS) assay (27, 28) to identify small molecules that bind directly to a truncated form of Tsg101 (amino acids 1-145) which contains the Ubiquitin E2 variant (UEV) ubiquitin-binding domain (FIG. 1A, 1B, 1C). […] This truncated Tsg101, called Tsg101-UEV, was used because full-length Tsg101 has significant solubility issues in aqueous solution. Tsg101 is an adaptor protein and thus lacks a readily deployable functional assay, making FTS a tractable approach to identify interacting compounds. FTS monitors protein thermal denaturation using SYPRO® Orange, a dye which fluoresces when bound to hydrophobic surfaces, which allows monitoring of the changes in hydrophobic surface exposure during protein denaturation (27). Since ligand binding affects protein thermal stability, it can be detected through modulation of protein thermal denaturation (melting) as a shift in melting temperature (Tm). Tsg101-UEV has a well-defined melting curve suitable for FTS. We used the FTS assay to identify compounds that bind to Tsg101-UEV.
Fluorescence thermal shift (FTS) screening to identify small molecule binding to Tsg101-UEV. FTS using thermal shift elicited by the small molecule binding effect to protein stability. FTS monitors protein thermal denaturation using environment-sensitive dye Sypro® Orange which fluoresces when bound to hydrophobic surfaces, taking advantage of the changes in hydrophobic surface exposure in protein denaturation. Discovery of small molecule binding to target protein utilizes the observation that ligand binding affects protein thermal stability, and therefore can be detected through a shift in the protein's thermal denaturation (melting) temperature (Tm). We have employed FTS to reveal changes in thermodynamic properties of Tsg101 elicited by its interaction with a small molecule. […] A fluorescence dye Sypro® Orange (Invitrogen) was used for assay detection. The dye is excited at 473 nm and has a fluorescence emission at 610 nm. The dye binds to hydrophobic regions of a protein that are normally buried in a native protein structure. […] The Tsg101 fragment was premixed at a concentration of 2 μM with a 5× concentration of Sypro® Orange in HEPES buffer (100 mM HEPES, 150 mM NaCl, pH 7.5). Then 10 μl of the protein-dye mix was added to an assay plate and 10 to 50 nanoliters of compound, equal to 10 to 50 μM, were added with an acoustic transfer robot Echo550 (Labcyte, CA).

[2] = system: HSV-2; experiment: HSV-2 release from infected Vero cells, plaque assay; settings: for EC50: read-out: EC50 (μM) Inhibition of HSV-2 Budding at 24 h; for Titer of HSV-2 Media, 24 h / Titer of HSV-2 in media + cell lysate, 24 h / Titer of HSV-2 in media, 48 h: Vero cells
[3] = system: HSV-1; experiment: Transmission electron microscopy of HSV-1 infected Vero cells, particle counts; settings: 18 μM ilaprazole, 24 h, HSV-1, Vero cells
Description: (§2) Transmission electron Microscopy. Vero cells on glass cover slips were infected with HSV-2 at a MOI of 0.1 for two hours. Then 105 μM of tenatoprazole or 18 μM Ilaprazole was added and cells incubated for 24 hours. Tissue samples were fixed in 0.1 M sodium cacodylate buffer pH 7.3 containing 2% paraformaldehyde and 2.5% glutaraldehyde and post-fixed with 2% osmium tetroxide 427 in unbuffered aqueous solution. The samples were rinsed with distilled water, en bloc stained with 3% uranyl acetate, rinsed with distilled water, dehydrated in ascending grades of ethanol, transitioned with propylene oxide, embedded in the resin mixture of Embed 812 kit and cured in a 60° C. oven. Samples were sectioned on a Leica Ultracut UC6 ultramicrotome. 1 μm thick sections were collected and stained with Toluidine Blue O and 70 nm sections were collected on 200 mesh copper grids; thin sections were stained with uranyl acetate and Reynolds lead citrate. Transmission electron microscopy (TEM) was performed on a FEI Tecnai Spirit G2.

[4] = system: Vero cells; experiment: Vero cell toxicity, WST-1 reagent; format: cell-based
Description: (§1) Drug potency and cell toxicity. […] Cell toxicity experiments were repeated twice.

[5] = system: HSV-2; experiment: Transmission electron microscopy of HSV-2 infected Vero cells, particle counts; settings: 18 μM ilaprazole, 24 h, HSV-2, Vero cells
Description: Vero cells grown on glass cover slips were infected with HSV-2 at MOI of 0.1 pfu/cell for 2 h and then treated for 24 h with 105 μM tenatoprazole or vehicle control.
as §2

[6] = system: HSV-1; experiment: HSV-1 release from infected Vero cells, plaque assay; settings: Vero cells
[7] = system: Vero cells; experiment: Vero cell viability, 96 AQueous One Solution cell proliferation assay; format: cell-based
Description: as §1

[8] = system: HIV-1; settings: 293T cells, media, 24 h
Description: Effect of Ilaprazole on release of HIV-1 in vitro. […] To this end, cells were transfected with pR9-HIV-1Ba-L plasmid and release of virus into the media fraction was detected by monitoring the capsid (CA) protein (p24) via enzyme linked immunosorbent assay analysis. The drug was tested at concentrations between 0 and 240 μM and the effect of the drug on release of virus assessed (Table 4, column 2).
HIV-1 transfection of 293 T cells. 293T cells (American Type Culture Collection) were grown in a 24-well Clear Flat Bottom TC-treated Multiwell Cell Culture Plate using Dulbecco's modified Eagle's medium (Cellgro) containing fetal bovine serum (10%), 100 U/ml penicillin, 100 μg/ml streptomycin, and 292 μg/ml 1-glutamine (Cellgro). Cells were grown to 60-70% confluency at 37° C. and 5% CO2 408 prior to addition of drug treatment. Culture media was aspirated and replaced with media containing drug compound 7 hours prior to transfection of the plasmid encoding the HIV-1 genome. Transfection was done using reagent Polyethyleneimine (PEI, Polysciences). […] After 24 h and 48 h, tissue culture media was collected and passed through a 0.45-micron filter. Virus released from cells was quantified by media-associated p24 determined using fluorescently tagged CA targeting antibody (PerkinElmer) and equivalent amounts of p24 as standards.

[9] = system: 293T cells; experiment: 293T cell viability, 96 Aqueous One reagent; format: cell-based
Description: as §1

[10] = system: HIV-1; settings: 293T cells in culture; cited from earlier work
[11] = HSV-2 infected Vero cells, virus released into media, plaque assay

5-methoxy-2[[(3,5-dimethyl-4-methoxy-pridin-2-yl-N-oxide)methyl]sulfinyl]-1H-benzimidazole [O-omeprazole]
Thermal shift (Tm shift) of Tsg101-UEV caused by compound [1]: did not cause a detectable thermal shift
EC50 (μM) Inhibition of HSV-2 Budding at 24 h [2, 11]: inactive

Pantoprazole
Thermal shift (Tm shift) of Tsg101-UEV caused by compound [1]: smallest thermal shift
Tm shift of Tsg101 in the FTS assay on addition of DTT [1]: abolishes the Tm shift
EC50 (μM) Inhibition of HSV-2 Budding at 24 h [2, 11]: inactive

Cc1c(OCC(F)(F)F)ccnc1C[S+]([O-])c1nc2ccccc2[nH]1 (stereo not shown) [Lansoprazole]
EC50 ([2]; Human alphaherpesvirus 2, Vero, 24 h): 84 µM

Ilaprazole
Average number of virus particles in the nucleus [3]: 43 particles
Range of virus particles in the nucleus [3]: 15-166 particles
Virus particles in the cytoplasm [3]: 0 particles
WST-1 Cell Toxicity OD440-660 nm, 24 h ([4]; Ilaprazole 4.5 μM): 1.058
WST-1 Cell Toxicity OD440-660 nm, 24 h ([4]; Ilaprazole 9.0 μM): 1.055
WST-1 Cell Toxicity OD440-660 nm, 24 h ([4]; Ilaprazole 13.5 μM): 0.950
WST-1 Cell Toxicity OD440-660 nm, 24 h ([4]; Ilaprazole 27 μM): 1.055
WST-1 Cell Toxicity OD440-660 nm, 24 h ([4]; Ilaprazole 270 μM): 0.423
Thermal shift (Tm shift) of Tsg101-UEV caused by compound [1]: largest thermal shift
Tm shift of Tsg101 in the FTS assay on addition of DTT [1]: blocked by the addition of DTT; also recorded: abolishes the Tm shift
Average number of virus particles in the nucleus [5]: 31 particles
Range of virus particles in the nucleus [5]: 9-56 particles
Virus particles in the cytoplasm [5]: 0 particles
Titer of HSV-1 Media, 24 h ([6]; Ilaprazole 4.5 μM): 2.00E+06
Titer of HSV-1 Media, 48 h ([6]; Ilaprazole 4.5 μM): 2.40E+06
Titer of HSV-1 in media + cell lysate, 24 h ([6]; Ilaprazole 4.5 μM): 7.0E+07
Titer of HSV-1 Media, 24 h ([6]; Ilaprazole 9.0 μM): 7.50E+04
Titer of HSV-1 Media, 48 h ([6]; Ilaprazole 9.0 μM): 2.50E+05
Titer of HSV-1 in media + cell lysate, 24 h ([6]; Ilaprazole 9.0 μM): 3.6E+06
Titer of HSV-1 Media, 24 h ([6]; Ilaprazole 13.5 μM): 3.20E+04
Titer of HSV-1 Media, 48 h ([6]; Ilaprazole 13.5 μM): 2.00E+02
Titer of HSV-1 in media + cell lysate, 24 h ([6]; Ilaprazole 13.5 μM): 3.8E+05
Titer of HSV-1 Media, 24 h ([6]; Ilaprazole 18.0 μM): 6.00E+02
Titer of HSV-1 Media, 48 h ([6]; Ilaprazole 18.0 μM): 0.00E+00
Titer of HSV-1 in media + cell lysate, 24 h ([6]; Ilaprazole 18.0 μM): 9.1E+03
Titer of HSV-1 Media, 24 h ([6]; Ilaprazole 22.5 μM): 1.00E+02
Titer of HSV-1 Media, 48 h ([6]; Ilaprazole 22.5 μM): 0.00E+00
Titer of HSV-1 in media + cell lysate, 24 h ([6]; Ilaprazole 22.5 μM): 7E+02
Inhibition of virus release 4 and 5 days after a single application ([6]; data not shown): Significant inhibition was still observed
EC50 ([6]; read-out: EC50, inhibition of HSV-1 release at 72 h, 72 h after a single application): 0.8 to 1.2 µM
EC50 ([6]; read-out: EC50, inhibition of HSV-1 release, 24 h, range stated jointly for HSV-1 and HSV-2): 3 to 9 µM
Cell toxicity at concentrations that block virus release ([7]; 24 h, result in words): did not observe cell toxicity
96 ® Cell Viablility OD490 nm 24 h ([7]; Ilaprazole 4.5 μM): 1.764
96 ® Cell Viablility OD490 nm 24 h ([7]; Ilaprazole 9.0 μM): 1.711
96 ® Cell Viablility OD490 nm 24 h ([7]; Ilaprazole 13.5 μM): 1.690
96 ® Cell Viablility OD490 nm 24 h ([7]; Ilaprazole 18.0 μM): 1.737
96 ® Cell Viablility OD490 nm 24 h ([7]; Ilaprazole 54 μM): 1.658
96 ® Cell Viablility OD490 nm 24 h ([7]; Ilaprazole 270 μM): 0.466
p24 pg/ml HIV ([8]; Ilaprazole 0.5 μM): 4063 pg/mL
p24 pg/ml HIV ([8]; Ilaprazole 1 μM): 3518 pg/mL
p24 pg/ml HIV ([8]; Ilaprazole 2 μM): 1652 pg/mL
p24 pg/ml HIV ([8]; Ilaprazole 5 μM): 274 pg/mL
p24 pg/ml HIV ([8]; Ilaprazole 10 μM): 178 pg/mL
Titer of HSV-2 Media, 24 h ([2]; Ilaprazole 4.5 μM): 1.00E+05
Titer of HSV-2 in media + cell lysate, 24 h ([2]; Ilaprazole 4.5 μM): 3.60E+07
Titer of HSV-2 in media, 48 h ([2]; Ilaprazole 4.5 μM): 2.50E+05
Titer of HSV-2 Media, 24 h ([2]; Ilaprazole 9.0 μM): 5.00E+04
Titer of HSV-2 in media + cell lysate, 24 h ([2]; Ilaprazole 9.0 μM): 4.50E+06
Titer of HSV-2 in media, 48 h ([2]; Ilaprazole 9.0 μM): 7.50E+04
Titer of HSV-2 Media, 24 h ([2]; Ilaprazole 13.5 μM): 1.00E+04
Titer of HSV-2 in media + cell lysate, 24 h ([2]; Ilaprazole 13.5 μM): 4.30E+06
Titer of HSV-2 in media, 48 h ([2]; Ilaprazole 13.5 μM): 5.50E+04
Titer of HSV-2 Media, 24 h ([2]; Ilaprazole 18.0 μM): 1.50E+03
Titer of HSV-2 in media + cell lysate, 24 h ([2]; Ilaprazole 18.0 μM): 2.00E+05
Titer of HSV-2 in media, 48 h ([2]; Ilaprazole 18.0 μM): 1.50E+03
Titer of HSV-2 Media, 24 h ([2]; Ilaprazole 22.5 μM): 1.00E+02
Titer of HSV-2 in media + cell lysate, 24 h ([2]; Ilaprazole 22.5 μM): 1.50E+04
Titer of HSV-2 in media, 48 h ([2]; Ilaprazole 22.5 μM): 3.00E+02
EC50 [2, 11]: 3 to 9 µM
Toxicity to cells at concentrations that inhibited release of HIV-1 ([9]; 293T cells): did not detect toxicity
96 ® Cell Viability OD490 nm, 24 h ([9]; Ilaprazole 1.8 μM): 1.672
96 ® Cell Viability OD490 nm, 24 h ([9]; Ilaprazole 3.6 μM): 1.576
96 ® Cell Viability OD490 nm, 24 h ([9]; Ilaprazole 7.2 μM): 1.684
96 ® Cell Viability OD490 nm, 24 h ([9]; Ilaprazole 10.8 μM): 1.650
96 ® Cell Viability OD490 nm, 24 h ([9]; Ilaprazole 13.5 μM): 1.693

Esomeprazole
Inhibition of release of infectious HIV-1 from 293T cells (earlier report) [10]: quantitatively inhibit
EC50 [2, 11]: 140 µM
